# According to patent US20230133064A1, “T CELL MANUFACTURING PROCESS” (Adaptimmune Limited, priority 2020, published 2023):
# Columns and labels:
# Assay type in all cases: cell-based, human
# [1] = tested on: T cells; assay: Memory phenotype flow cytometry (CCR7/CD45RA) of transduced CD8+ T cells at day 10 harvest
# Source text: All cells were expanded and transduced, using a static expansion system, (scalable G-Rex®). Cryopreserved leukapheresis starting materials from healthy donors or cancer patients were thawed, washed, activated with CD3/CD28 magnetic Dynabeads, and CD3+ positive fraction was magnetically separated. The starting leukapheresis material was similar across the healthy donors. CD3+ cells ranged from 44-64%, all with an increased purity of 79-87% following positive isolation using anti CD3/CD28 Dynabeads. CD3+ phenotyping identified a range of stem cell memory (SCM) markers (CCR7+/CD45RA+) ranging from 11.6-57% in the CD8+ compartment between individuals. Enriched CD3+ T cells were seeded based on total nucleated cell (TNC) counts at 1.5×10^6 TNC/cm^2 density in the G-Rex® static cell expansion system device, in 10% of final culture volume using TexMACS+5% human AB serum (HABS) supplemented with 100 IU/ml IL-2. Transduction with vector expressing a heterologous TCR (recognising MAGE-A4) was performed 18-26 hours post addition of CD3/CD28 Dynabeads to the cells, using lentivirus (LV) vector at a MOI of 0.45. Media was then added to top up to the final culture volume, this was performed 17-24 hours post transduction with TexMACS+5% HABS+500 IU/ml IL-2. Cells were then incubated at 37° C., 5% CO2 for a further 8 days. MK-2206 was added to the media at defined intervals; in day 0 seeding media and supplemented in media used for day 2 media addition, or solely supplemented in media for day 2 media addition. The concentration of the compound varied for each experiment, 10 uM, 7.5 uM, 5 uM, 2.5 uM, 2 uM, 1.5 uM, 1 uM, 0.5 uM, 0.25 uM, 0.1 uM, 0.05 uM as dictated in the following examples. T cells were harvested 10 days post seeding. After bead removal, T-cells were counted by automated cell analysis (with […]). Harvested cells were then frozen for later phenotypic and functional analysis as described. Flow cytometry was performed on healthy donor material on day 10 harvest from the described process to determine Memory Phenotype markers of cultured cells using CCR7 and CD45RA staining
# [2] = tested on: T cells; assay: T cell expansion in G-Rex static culture, TNC counts at day 10 harvest (ViCELL)
# Source text: All cells were expanded and transduced, using a static expansion system, (scalable G-Rex®). Cryopreserved leukapheresis starting materials from healthy donors or cancer patients were thawed, washed, activated with CD3/CD28 magnetic Dynabeads, and CD3+ positive fraction was magnetically separated. The starting leukapheresis material was similar across the healthy donors. CD3+ cells ranged from 44-64%, all with an increased purity of 79-87% following positive isolation using anti CD3/CD28 Dynabeads. CD3+ phenotyping identified a range of stem cell memory (SCM) markers (CCR7+/CD45RA+) ranging from 11.6-57% in the CD8+ compartment between individuals. Enriched CD3+ T cells were seeded based on total nucleated cell (TNC) counts at 1.5×10^6 TNC/cm^2 density in the G-Rex® static cell expansion system device, in 10% of final culture volume using TexMACS+5% human AB serum (HABS) supplemented with 100 IU/ml IL-2. Transduction with vector expressing a heterologous TCR (recognising MAGE-A4) was performed 18-26 hours post addition of CD3/CD28 Dynabeads to the cells, using lentivirus (LV) vector at a MOI of 0.45. Media was then added to top up to the final culture volume, this was performed 17-24 hours post transduction with TexMACS+5% HABS+500 IU/ml IL-2. Cells were then incubated at 37° C., 5% CO2 for a further 8 days. MK-2206 was added to the media at defined intervals; in day 0 seeding media and supplemented in media used for day 2 media addition, or solely supplemented in media for day 2 media addition. The concentration of the compound varied for each experiment, 10 uM, 7.5 uM, 5 uM, 2.5 uM, 2 uM, 1.5 uM, 1 uM, 0.5 uM, 0.25 uM, 0.1 uM, 0.05 uM as dictated in the following examples. T cells were harvested 10 days post seeding. After bead removal, T-cells were counted by automated cell analysis (with ViCELL). Harvested cells were then frozen for later phenotypic and functional analysis as described.
# Healthy donor material (leukapheresis material comprising white blood cells separated from a donor sample of blood) was processed for culture in static expansion (G-Rex device) following the aforementioned process for a 10 day duration. The cells were cultured with MK-2206 (1.25, 2.5, 5.0, 10 uM) added to cultures on day 0+day 2 or day 2 alone (with the day 2 media addition). On harvest, Total Nucleated Cell (TNC) counts were performed using an automated cell counter (ViCELL) to provide expansion data, and flow cytometry performed to determine phenotype. The harvested cultures were frozen and later thawed for functional assessment, an antigen stimulated cytokine release assay (1.3 described above).
# The concentration of MK-2206 was tested in further titratration from 0.05 to 10 uM to fully determine optimal dosing and day 0(+2) and day 2 alone are both assessed to determine the optimal time of addition. Again, expansion, phenotype and cytokine production data has been assessed. An additional four donors were tested at the varying concentrations, to provide a full titration range in this study, 10 uM to 0.05 uM. All donors were tested in 10 M G-Rex following the described process and were harvested on Day 10. Expansion data considered the timepoint of addition of MK-2206; Day 0+2 and Day 2 alone.
# [3] = tested on: T-cells stimulated with MAGEA4-positive cell line A375; assay: Antigen-stimulated IFNγ release by ELISA, expanded T-cells co-cultured with A375 for 48 hours
# Description: Function of expanded T-cells was evaluated based on the levels of cytokine release by expanded T-cells following antigen-stimulation with the MAGEA4-expressing cell line, A375. A375 MAGEA4 positive target cells were counted using automated cell counter and seeded in a 96 well U-bottom plate at 30,000 viable nucleated cells (VNC) per well, in 100 uL volume per well, one day prior to T-cell stimulation and incubated overnight at 37° C., 5% CO2. Wells that were used as “T cells alone” control, received 100 uL R10 media (RPMI medium with 10% FBS and 1% Penicillin/Streptomycin) only. Following overnight incubation of target cells, harvested and frozen T-cells were thawed at 37° C. in the water bath and washed with R10 media. Cells were rested in R10 media at a density of 2×10^6 VNC/mL for 2 hours at 37° C., 5% CO2. After 2-hour rest, T-cells were counted using automated cell counter, and cultures were normalised to 35% transduction efficiency for all donors combining calculated amount of transduced and non-transduced VNC for each condition. […] Colorimetric read-out was analysed (BMG LABTECH FLUOstar Omega plate reader) at OD 450. […] For the cytokine release assays, the target and effector cells were co-cultured for 48 hours then the supernatants were collected and analysed for IFN gamma levels by ELISA. […]
# [4] = Day 0+2 addition, all concentrations 0.05-10 uM, across donors, FIG. 3A
structure (smiles),measurement,setting,value
NC1(c2ccc(-c3nc4ccn5c(=O)[nH]nc5c4cc3-c3ccccc3)cc2)CCC1 [MK-2206],CCR7+CD45RA+ populations at harvest compared to the untreated control,"[1]; added on day 0+2 and day 2 alone, CD3+/Dextramer+/CD8+ compartment, FIG. 4",increased
same,EMRA population versus untreated control,[1]; all concentrations tested,remains similar to the untreated control
same,CD62L expression,[1]; cells cultured with MK-2206,increase
same,CCR7−CD45RA− effector memory (EM) populations,"[1]; cells cultured with MK-2206, FIG. 4",decrease
same,expansion (TNC counts),"[2]; 10 uM, all timepoints for addition, FIG. 2",reduced expansion
same,TNC yield,"[2]; Day 0(+2) addition, FIG. 2",low yield
same,limit of expansion decrease (fold change to untreated control),[2]; [4],0.15 fold
same,limit of expansion increase (fold change to untreated control),[2]; [4],1.5 fold
same,impact on expansion,"[2]; Day 2 addition, 0.05-10 uM, FIG. 3B",no negative impact on expansion
same,concentration providing peak expansion,"[2]; Day 2 addition, 3 donors, FIG. 3B",0.5 µM
same,expansion response relative to control,"[2]; Day 2 addition, all conditions, FIG. 3B",1-2 fold
same,T cell expansion,"[2]; MK-2206 added on Day 2, after activation on day 0 and transduction on day 1",Improved T cell expansion
same,TNC yield,"[2]; day 2 alone addition, with exception of 10 uM, FIG. 2",improved TNC yield
same,expansion (TNC counts) compared to the untreated control,"[2]; healthy donor material, lower concentrations of MK-2206 (1.25-10 uM tested), day 10 harvest, FIG. 2",increased expansion
same,IFN gamma production following antigen stimulation versus untreated control,"[3]; day 2 addition of MK-2206, FIG. 5",highest increase
same,IFN gamma production following antigen stimulation,"[3]; increasing MK-2206 concentration, >5 uM, FIG. 5",decrease
